Bounds are passed on as bounds.

human sphingosine-1-phosphate receptor 1 (S1P1), sequence (P21453 whole entry): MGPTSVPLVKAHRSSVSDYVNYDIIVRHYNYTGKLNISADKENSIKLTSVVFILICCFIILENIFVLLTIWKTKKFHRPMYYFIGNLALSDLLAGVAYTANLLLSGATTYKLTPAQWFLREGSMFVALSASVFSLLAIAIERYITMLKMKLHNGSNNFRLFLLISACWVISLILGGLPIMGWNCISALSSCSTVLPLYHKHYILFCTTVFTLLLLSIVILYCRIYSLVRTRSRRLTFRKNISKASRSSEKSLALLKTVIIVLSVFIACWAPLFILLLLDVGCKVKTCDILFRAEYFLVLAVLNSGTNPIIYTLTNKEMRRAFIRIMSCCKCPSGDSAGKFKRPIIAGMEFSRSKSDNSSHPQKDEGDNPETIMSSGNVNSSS

One assay concerns the target human sphingosine-1-phosphate receptor 1 (S1P1) (Homo sapiens, UniProt P21453). Nature of the assay: Inhibition of cAMP production (HTRF cAMP HiRange), S1P1 CHO-K1 cells. The class given is cell-based. Conditions: inhibition of cAMP production, S1P1; read-out: hS1P1 CAMP pEC50 (converted). In short, it runs like this: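 Intracellular cAMP changes read by TR-FRET (HTRF HiRange, 1 h room temperature) after 30 min compound exposure at 37 °C. Cells: overnight-plated CHO-K1 stably expressing tagged human S1P1 with EA-β-arrestin2. Responses normalized to fingolimod.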
Background: cAMP levels reflect the balance of adenylyl cyclase and phosphodiesterase activity.
As for `CC(C)n1nnc2cc(-c3nc(-c4nccn4C)no3)ccc21` [Compound 569, 5-[3-(1-methyl-1H-imidazol-2-yl)-1,2,4-oxadiazol-5-yl]-1-(propan-2-y1)-1H-1,2,3-benzotriazole], the EC50 is greater than 316 nM.

As to `COc1ccncc1-c1nc(-c2ccc3c(c2)nnn3C(C)C)no1` [Compound 605, 3-(1-isopropyl-1H-benzo[d][1,2,3]triazol-5-yl)-5-(4-methoxy-pyridin-3-yl)-1,2,4-oxadiazole], the EC50 was less than 316 nM.

Take `CC(C)n1nnc2cc(-c3nc4ccncc4o3)ccc21` [Compound 503, 2-(1-isopropyl-1H-benzo[d][1,2,3]triazol-5-yl)oxazolo[5,4-c]pyridine]: the EC50 was greater than 316 nM.

As to `CC(C)n1nnc2cc(-c3nc(-c4ccccc4C(F)(F)F)co3)ccc21` [Compound 432, 1-(propan-2-yl)-5-{4-[2-(trifluoromethyl)phenyl]-1,3-oxazol-2-yl}-1H-1,2,3-benzotriazole], the EC50 is less than 316 nM.

With `CC(C)n1nnc2cc(-c3nc4c(Br)cccc4o3)ccc21` [Compound 428, 4-bromo-2-(1-isopropylbenzotriazol-5-yl)-1,3-benzoxazole], the EC50 is greater than 316 nM.

The same assay, now with this note: inhibition of cAMP production; potency; read-out: hS1P1 CAMP pEC50 (converted).
In the case of `CC(F)CNc1ccc(-c2nc(-c3ccc4c(c3)CCC(=O)N4)no2)cc1C#N` (stereo not drawn) [Compound 348, 2-[(2-fluoropropyl)amino]-5-[3-(2-oxo-1,2,3,4-tetrahydroquinolin-6-yl)-1,2,4-oxadiazol-5-yl]benzonitrile], the EC50 is less than 316 nM.

Turning to `Cc1ccc(-c2nc(-c3ccc4c(c3)nnn4C(C)C)no2)cn1` [Compound 119, 3-(1-isopropyl-1H-benzo[d][1,2,3]triazol-5-yl)-5-(6-methyl-pyridin-3-yl)-1,2,4-oxadiazole], the EC50 is greater than 316 nM.

For the compound `C=C(F)CNc1ccc(-c2nc(-c3ccc4c(c3)CCC(=O)N4)no2)cc1C#N` [Compound 346, 2-[(2-fluoroprop-2-en-1-yl)amino]-5-[3-(2-oxo-1,2,3,4-tetrahydro-quinolin-6-yl)-1,2,4-oxadiazol-5-yl]benzonilrile], the EC50 was less than 316 nM.

With `COc1cncc(-c2nc(-c3ccc4c(c3)nnn4C(C)C)no2)c1` [Compound 272, 3-(1-isopropyl-1H-benzo[d][1,2,3]triazol-5-yl)-5-(5-methoxy-pyridin-3-yl)-1,2,4-oxadiazole], the EC50 was greater than 316 nM.

For the compound `C=CCNc1ccc(-c2nc(-c3ccc4c(c3)CC(=O)N4)no2)cc1C#N` [Compound 224, 2-(allylamino)-5-(3-(2-oxoindolin-5-yl)-1,2,4-oxadiazol-5-yl)benzonitrile], the EC50 was less than 316 nM.

With `CCC1(CC)CC(=O)c2cc(-c3nc(-c4ccc(OC)cc4)no3)ccc2O1` [Compound 65, 2,2-diethyl-6-(3-(4-methoxyphenyl)-1,2,4-oxadiazol-5-yl)chroman-4-one], the EC50 was greater than 316 nM.

Consider `CC(C)n1nnc2cc(-c3noc(C4CCC(F)(F)CC4)n3)ccc21` [Compound 125, 5-[5-(4,4-difluoro-cyclohexyl)-1,2,4-oxadiazol-3-yl]-1-(propan-2-yl)-1H-1,2,3-benzotriazole], for which the EC50 is greater than 316 nM.

Regarding `CC(C)Oc1ccc(-c2nc(-c3ccc4c(c3)nnn4C3CCCC3)no2)cc1C(F)(F)F` [Compound 14, 3-(1-cyclopentyl-1H-benzo[d][1,2,3]triazol-5-yl)-5-(4-isopropoxy-3-(trifluoromethyl)phenyl)-1,2,4-oxadiazole], the EC50 was less than 316 nM.

As for `CCC1(CC)CC(=O)c2cc(-c3nc(-c4ccc(NC)cc4)no3)ccc2O1` [Compound 153, 2,2-diethyl-6-(3-(4-(methylamino)phenyl)-1,2,4-oxadiazol-5-yl)chroman-4-one], the EC50 was greater than 316 nM.

With `CC(C)Oc1ccccc1-c1noc(-c2ccc3c(ccn3C(C)C)c2)n1` [Compound 324, 3-(2-isopropoxyphenyl)-5-(1-isopropyl-1H-indol-5-yl)-1,2,4-oxadiazole], the EC50 was greater than 316 nM.

Turning to `CCC1(CC)CC(=O)c2cc(-c3nc(-c4ccc(N)cc4)no3)ccc2O1` [Compound 256, 6-(3-(4-amino-phenyl)-1,2,4-oxadiazol-5-yl)-2,2-diethylchroman-4-one], the EC50 is less than 316 nM.

As to `Cc1ccccc1-c1noc(-c2ccc3c(c2)nnn3C2CCCCC2)n1` [Compound 245, 1-cyclohexyl-5-[3-(2-methylphenyl)-1,2,4-oxadiazol-5-yl]-1H-1,2,3-benzotriazole], the EC50 is greater than 316 nM.

Consider `Cc1ccccc1C(C)c1noc(-c2ccc3c(c2)nnn3C(C)C)n1` (stereo not drawn) [Compound 172, 5-{3-[1-(2-methyl-phenyl)ethyl]-1,2,4-oxadiazol-5-yl}-1-(propan-2-yl)-1H-1,2,3-benzotriazole], for which the EC50 is greater than 316 nM.

On to `Cc1ccncc1-c1noc(-c2ccc3c(c2)nnn3C(C)C)n1` [Compound 101, 5-[3-(4-methylpyridin-3-yl)-1,2,4-oxadiazol-5-yl]-1-(propan-2-yl)-1H-1,2,3-benzotriazole], for which the EC50 was less than 316 nM.

In the case of `CC(C)n1nnc2cc(-c3nc(-c4ccncc4)no3)ccc21` [Compound 244, 1-(propan-2-yl)-5-[3-(pyridin-4-yl)-1,2,4-oxadiazol-5-yl]-1H-1,2,3-benzotriazole], the EC50 is less than 316 nM.

Consider `COCC1(COC)CC(=O)c2cc(-c3nc(-c4cccnc4)no3)ccc2O1` [Compound 186, 2,2-bis(methoxy-methyl)-6-[3-(pyridin-3-yl)-1,2,4-oxadiazol-5-yl]-3,4-dihydro-2H-1-benzopyran-4-one], for which the EC50 is greater than 316 nM.

`CC(C)n1ncc2cc(-c3nc(-c4ccccc4Cl)no3)ccc21` [Compound 330, 3-(2-chlorophenyl)-5-(1-isopropyl-1H-indazol-5-yl)-1,2,4-oxadiazole]: the EC50 is less than 316 nM.

In the case of `Cc1ccccc1-c1cnc(-c2ccc3c(c2)nnn3C(C)C)s1` [Compound 216, 2-(1-isopropyl-benzotriazol-5-yl)-5-(o-tolyl)thiazole], the EC50 was greater than 316 nM.

With `COc1ccc(-c2nc(-c3ccc4c(c3)nnn4C(C)C)no2)cc1` [Compound 69, 3-(1-isopropyl-benzotriazol-5-yl)-5-(4-methoxyphenyl)-1,2,4-oxadiazole], the EC50 is greater than 316 nM.

With `CC(C)n1ccc2cc(-c3nc(-c4cccc5c4OCO5)no3)ccc21` [Compound 326, 3-(benzo[d][1,3]dioxol-4-yl)-5-(1-isopropyl-1H-indol-5-yl)-1,2,4-oxadiazole], the EC50 is greater than 316 nM.

In the case of `Cc1oc(-c2ccc3c(c2)nnn3C(C)C)nc1-c1ccc(Cl)cc1` [Compound 50, 5-[4-(4-chlorophenyl)-5-methyl-1,3-oxazol-2-yl]-1-(propan-2-yl)-1H-1,2,3-benzotriazole], the EC50 was greater than 316 nM.

Consider `Cc1cc(C)cc(-c2noc(-c3ccc4c(c3)nnn4C(C)C)n2)c1` [Compound 204, 5-[3-(3,5-dimethy-lphenyl)-1,2,4-oxadiazol-5-yl]-1-(propan-2-yl)-1H-1,2,3-benzotriazole], for which the EC50 is greater than 316 nM.

Regarding `Fc1ccc(-c2noc(-c3ccc4c(c3)nnn4C3CCCC3)n2)cc1` [Compound 232, 1-cyclopentyl-5-[3-(4-fluorophenyl)-1,2,4-oxadiazol-5 yl]-1H-1,2,3-benzotriazole], the EC50 is greater than 316 nM.

`CCC1(CC)CC(=O)c2cc(-c3nc(-c4ccncc4O)no3)ccc2O1` [Compound 312, 2,2-diethyl-6-(3-(3-hydroxypyridin-4-yl)-1,2,4-oxadiazol-5-yl)chroman-4-one]: the EC50 is greater than 316 nM.

`COc1ccc(-c2noc(-c3ccc4c(c3)nnn4C(C)C)n2)c2ccccc12` [Compound 129, 5-[3-(4-methoxy-naphthalen-1-yl)-1,2,4-oxadiazol-5-yl]-1-(propan-2-yl)-1H-1,2,3-benzotriazole]: the EC50 is greater than 316 nM.

With `COc1ccccc1-c1nnc(-c2ccc3c(c2)oc(=O)n3C)o1` [Compound 350, 6-[5-(2-methoxyphenyl)-1,3,4-oxadiazol-2-yl]-3-methyl-2,3-dihydro-1,3-benzoxazol-2-one], the EC50 was greater than 316 nM.

Take `COc1ccc(-c2coc(-c3ccc4c(c3)nnn4C(C)C)n2)cc1` [Compound 250, 5-[4-(4-methoxy-phenyl)-1,3-oxazol-2-yl]-1-(propan-2-yl)-1H-1,2,3-benzotriazole]: the EC50 was greater than 316 nM.

Turning to `Cc1ccccc1-c1noc(-c2ccc3c(c2)nnn3C2CCOCC2)n1` [Compound 95, 5-[3-(2-methylphenyl)-1,2,4-oxadiazol-5-yl]-1-(oxan-4-yl)-1H-1,2,3-benzotriazole], the EC50 is greater than 316 nM.

On to `CC1(C)CCC2(CC1)CC(=O)c1cc(-c3nc(-c4ccncc4)no3)ccc1O2` [Compound 254, 4′,4′-dimethyl-6-[3-(pyridin-4-yl)-1,2,4-oxadiazol-5-yl]-3,4-dihydrospiro[1-benzopyran-2,1′-cyclohexane]-4-one], for which the EC50 is less than 316 nM.

`CCC1(CC)CC(=O)c2cc(-c3nc(-c4ccc(NC(C)=O)cc4)no3)ccc2O1` [Compound 209, N-(4-(5-(2,2-diethyl-4-oxochroman-6-yl)-1,2,4-oxadiazol-3-yl)phenyl)acetamide]: the EC50 was less than 316 nM.

In the case of `N#Cc1cc(-c2nnc(-c3ccc4[nH]cnc4c3)o2)ccc1NCCF` [Compound 358, 5-[5-(1H-1,3-benzo-diazol-5-yl)-1,3,4-oxadiazol-2-yl]-2-[(2-fluoroethyl)amino] benzonitrile], the EC50 is less than 316 nM.

In the case of `O=C1CC2(CCCCC2)Oc2ccc(-c3nc(-c4cccnc4)no3)cc21` [Compound 41, 6-[3-(pyridin-3-yl)-1,2,4-oxadiazol-5-yl]-3,4-dihydrospiro[1-benzopyran-2,1′-cyclohexane]-4-one], the EC50 was greater than 316 nM.

In the case of `CC(C)Oc1ccccc1-c1noc(-c2ccc3c(cnn3C(C)C)c2)n1` [Compound 334, 3-(2-isopropoxy-phenyl)-5-(1-isopropyl-1H-indazol-5-yl)-1,2,4-oxadiazole], the EC50 was greater than 316 nM.

Regarding `Brc1ccccc1-c1nc(-c2ccc3[nH]nnc3c2)no1` [Compound 97, 3-(1H-benzo[d][1,2,3]triazol-5-yl)-5-(2-bromophenyl)-1,2,4-oxadiazole], the EC50 is greater than 316 nM.

Source of the values: patent publication US20230114241A1, “METHODS OF TREATING EPILEPSY USING THE SAME” (Trevena, Inc., priority 2019, published 2023).
